Species: Rattus norvegicus
Test: Open TG-GATES - Regimen: Single
Type: toxicity, organism-based, Sprague-Dawley
Set-up: regimen Single, gender Male, age 6 weeks
Details: in vivo, po, 300 mg/kg, route gavage, dose level Low; for APTT / Bas / Eos / Fbg / Hb / Ht / Lym / MCH / MCHC / MCV / Mono / Neu / PT / Plat / RBC / Ret / WBC: tissue Blood; for KIDNEY_L / KIDNEY_R / KIDNEY_TOTAL: tissue Kidney; for LIVER: tissue Liver; for A/G / ALP / ALT / AST / BUN / CRE / Ca / Cl / DBIL / GLC / IP / K / LDH / Na / PL / RALB / TBIL / TC / TG / TP / gamma-GTP: tissue Plasma

CC(=O)[C@@]1(O)CC[C@H]2[C@@H]3C=C(Cl)C4=CC(=O)CC[C@]4(C)[C@H]3CC[C@@]21C [CHLORMADINONE]
TERMINAL_BW (3 h): 219.9 g
APTT (3 h): 22.1 s
Bas (3 h): 0%
Eos (3 h): 1%
Fbg (3 h): 310.8 mg/dL
Hb (3 h): 13 g/dL
Ht (3 h): 40.3%
Lym (3 h): 75%
MCH (3 h): 20.5 pg
MCHC (3 h): 32.4%
MCV (3 h): 63.3 fL
Mono (3 h): 1.8%
Neu (3 h): 22.4%
PT (3 h): 15.2 s
Plat (3 h): 115.5 x10_4/uL
RBC (3 h): 637.8 x10_4/ul
Ret (3 h): 7.3%
WBC (3 h): 52.5 x10_2/uL
KIDNEY_L (3 h): 0.9 g
KIDNEY_R (3 h): 1 g
KIDNEY_TOTAL (3 h): 1.9 g
LIVER (3 h): 10.4 g
A/G (3 h): 1.3
ALP (3 h): 1442.2 IU/L
ALT (3 h): 48 IU/L
AST (3 h): 78.6 IU/L
BUN (3 h): 16 mg/dL
CRE (3 h): 0.2 mg/dL
Ca (3 h): 11 mg/dL
Cl (3 h): 105.4 meq/L
DBIL (3 h): 0 mg/dL
GLC (3 h): 181.4 mg/dL
IP (3 h): 9.3 mg/dL
K (3 h): 4.2 meq/L
LDH (3 h): 140.6 IU/L
Na (3 h): 143 meq/L
PL (3 h): 147.2 mg/dL
RALB (3 h): 3.1 g/dL
TBIL (3 h): 0.024 mg/dL
TC (3 h): 79.8 mg/dL
TG (3 h): 51.6 mg/dL
TP (3 h): 5.6 g/dL
gamma-GTP (3 h): 1.6 IU/L
TERMINAL_BW (6 h): 217.9 g
APTT (6 h): 24.4 s
Bas (6 h): 0%
Eos (6 h): 0.8%
Fbg (6 h): 317.6 mg/dL
Hb (6 h): 13.1 g/dL
Ht (6 h): 40.7%
Lym (6 h): 77.2%
MCH (6 h): 20.6 pg
MCHC (6 h): 32.3%
MCV (6 h): 63.8 fL
Mono (6 h): 1.8%
Neu (6 h): 20%
PT (6 h): 15.6 s
Plat (6 h): 106.2 x10_4/uL
RBC (6 h): 638.2 x10_4/ul
Ret (6 h): 7.9%
WBC (6 h): 68.9 x10_2/uL
KIDNEY_L (6 h): 1 g
KIDNEY_R (6 h): 1 g
KIDNEY_TOTAL (6 h): 2 g
LIVER (6 h): 10.3 g
A/G (6 h): 1.3
ALP (6 h): 1567.8 IU/L
ALT (6 h): 39.4 IU/L
AST (6 h): 72.8 IU/L
BUN (6 h): 12.6 mg/dL
CRE (6 h): 0.1 mg/dL
Ca (6 h): 10.5 mg/dL
Cl (6 h): 105.8 meq/L
DBIL (6 h): 0 mg/dL
GLC (6 h): 181.8 mg/dL
IP (6 h): 9.2 mg/dL
K (6 h): 4.4 meq/L
LDH (6 h): 159.6 IU/L
Na (6 h): 141.4 meq/L
PL (6 h): 134.8 mg/dL
RALB (6 h): 3.1 g/dL
TBIL (6 h): 0.032 mg/dL
TC (6 h): 80.8 mg/dL
TG (6 h): 35 mg/dL
TP (6 h): 5.6 g/dL
gamma-GTP (6 h): 1.8 IU/L
TERMINAL_BW (9 h): 219.9 g
APTT (9 h): 24.1 s
Bas (9 h): 0%
Eos (9 h): 0.2%
Fbg (9 h): 325.6 mg/dL
Hb (9 h): 13.2 g/dL
Ht (9 h): 41%
Lym (9 h): 79.4%
MCH (9 h): 20.2 pg
MCHC (9 h): 32%
MCV (9 h): 63.1 fL
Mono (9 h): 1%
Neu (9 h): 18.8%
PT (9 h): 15.6 s
Plat (9 h): 113.9 x10_4/uL
RBC (9 h): 651.2 x10_4/ul
Ret (9 h): 7.9%
WBC (9 h): 52.5 x10_2/uL
KIDNEY_L (9 h): 1 g
KIDNEY_R (9 h): 1 g
KIDNEY_TOTAL (9 h): 2 g
LIVER (9 h): 10.4 g
A/G (9 h): 1.3
ALP (9 h): 1458.4 IU/L
ALT (9 h): 39.4 IU/L
AST (9 h): 72 IU/L
BUN (9 h): 14.2 mg/dL
CRE (9 h): 0.1 mg/dL
Ca (9 h): 10.8 mg/dL
Cl (9 h): 105.4 meq/L
DBIL (9 h): 0 mg/dL
GLC (9 h): 201.8 mg/dL
IP (9 h): 8.9 mg/dL
K (9 h): 4.5 meq/L
LDH (9 h): 153.6 IU/L
Na (9 h): 140.6 meq/L
PL (9 h): 152 mg/dL
RALB (9 h): 3.2 g/dL
TBIL (9 h): 0.026 mg/dL
TC (9 h): 83 mg/dL
TG (9 h): 79 mg/dL
TP (9 h): 5.6 g/dL
gamma-GTP (9 h): 1.6 IU/L
TERMINAL_BW (24 h): 225.1 g
APTT (24 h): 25.2 s
Bas (24 h): 0%
Eos (24 h): 1.2%
Fbg (24 h): 336.2 mg/dL
Hb (24 h): 13.8 g/dL
Ht (24 h): 41.9%
Lym (24 h): 80.4%
MCH (24 h): 21.1 pg
MCHC (24 h): 32.9%
MCV (24 h): 64 fL
Mono (24 h): 2.4%
Neu (24 h): 15.2%
PT (24 h): 15.5 s
Plat (24 h): 121.2 x10_4/uL
RBC (24 h): 654.4 x10_4/ul
Ret (24 h): 7.7%
WBC (24 h): 124 x10_2/uL
KIDNEY_L (24 h): 1 g
KIDNEY_R (24 h): 1 g
KIDNEY_TOTAL (24 h): 2 g
LIVER (24 h): 11 g
A/G (24 h): 1.3
ALP (24 h): 1795.2 IU/L
ALT (24 h): 46.2 IU/L
AST (24 h): 73 IU/L
BUN (24 h): 18.8 mg/dL
CRE (24 h): 0.2 mg/dL
Ca (24 h): 10.6 mg/dL
Cl (24 h): 106.4 meq/L
DBIL (24 h): 0 mg/dL
GLC (24 h): 184 mg/dL
IP (24 h): 8.1 mg/dL
K (24 h): 4.5 meq/L
LDH (24 h): 204.8 IU/L
Na (24 h): 141 meq/L
PL (24 h): 169.2 mg/dL
RALB (24 h): 3.1 g/dL
TBIL (24 h): 0.004 mg/dL
TC (24 h): 83.8 mg/dL
TG (24 h): 175 mg/dL
TP (24 h): 5.6 g/dL
gamma-GTP (24 h): 2 IU/L
